From patent US20240285555A1, “COMPOSITIONS FOR THE TREATMENT OF COPPER DEFICIENCY AND METHODS OF USE” (priority 2018, published 2024)

Experiments:
[1] = multiple human clinical trials; cited from earlier work
SCO2 patient fibroblasts = test: Steady state COX2 levels in SCO2 patient fibroblasts; type: cell-based, human; details: dose and time dependent
Procedure: Mammalian Cell Culture. The human control MCH46 and SCO2 patient fibroblasts as well as the rat H9c2 control and Ctr1^−/− cardiomyocytes were cultured in high glucose Dulbecco's modified Eagle's medium (DMEM) supplemented with 10% fetal bovine serum (Sigma) and 1 mM sodium pyruvate (Life Technologies). The mouse embryonic fibroblasts were cultured in DMEM 10% FBS, 1 mM sodium pyruvate, 1× minimum essential medium non-essential amino acids (MEM NEAA; Life Technologies 11140), 50 μg/mL uridine, and 1× Pen Strep Glutamine (Life Technologies 10378). All cell lines were cultured under 5% CO2 at 37° C. and were treated with indicated concentrations of ES for 3-6 days before harvesting. Whole cell protein was extracted in lysis buffer (BP-115, Boston BioProducts) supplemented with protease inhibitor cocktail (Roche Diagnostics) and the protein concentrations were determined by BCA assay (Thermo Scientific).
Immunoblotting and In-gel Activities. Sodium dodecyl sulfate polyacrylamide gel electrophoresis (SDS-PAGE) and Blue Native PAGE (BN-PAGE) were performed to separate denatured and native protein complexes, respectively. For SDS-PAGE, mitochondrial lysate ([…]) was separated on NuPAGE 4-12% Bis-Tris gels (Life Technologies, Carlsbad, CA). For BN-PAGE, yeast mitochondria were solubilized in buffer containing 1% digitonin (Life Technologies) by incubating for 15 min at 4° C. […]

[2] = system: immortalized control (MCH46) and SCO2 patient fibroblasts, primary human skin fibroblasts (MW28); test: Cell viability of human fibroblasts (total cellular ATP, Cell-Titre GLo); type: cell-based
Procedure: FIGS. 5A and 5B illustrate cell viability of immortalized and primary human fibroblasts cell lines treated with increasing concentrations of elesclomol. […] Cell viability was measured by quantifying total cellular ATP levels by Cell-Titre GLo assay (Promega). Data are expressed as mean±SD (n=3).
ES Supplementation Rescues Levels of CcO Subunits in Mammalian Cell Lines with Genetic Defects in Copper Metabolism. To expand upon the findings in yeast and to test the efficacy of ES in mammalian cell culture models of copper deficiency, a Ctr1 knockout rat H9c2 cardiomyocyte cell line was constructed. […] As expected, the loss of Ctr1 led to a ˜4-fold decrease in the levels of intracellular copper (FIG. 4A) and a concomitant reduction in the levels of the CcO subunitCOX1 and superoxide dismutase, SOD1 (FIG. 4B). This validated Ctr1^−/− cell line was used to test the efficacy of ES in rescuing COX1, a copper-containing subunit of CcO and SOD1, superoxide dismutase, another copper-containing enzyme SOD1. […] Finally, the efficacy of ES in rescuing CcO defects in SCO2 patient fibroblasts that were previously shown to have a COX2 deficiency was tested.

coa6Δpic2Δ cells = test: Respiratory growth rescue of coa6Δpic2Δ yeast; type: cell-based, Saccharomyces cerevisiae; details: ES supplementation
Procedure: Yeast Strains and Culture Conditions. The authenticity of yeast strains was confirmed by PCR as well as by replica plating on dropout plates. Yeast cells were cultured in standard YP growth media including YPD (1% yeast extract, 2% peptone and 2% glucose), YPGal (2% galactose), YPGE (3% glycerol+1% ethanol), or synthetic media (SC glucose). For qualitative growth measurement, 10-fold serial dilutions of overnight cultures were spotted on YPD or YPGE plates and incubated at 30° C. and 37° C. for the indicated period. Growth in liquid media was measured spectrophotometrically at 600 nm.
To further corroborate that ES increases mitochondrial copper levels by actively transporting extracellular copper into the cells, copper availability in the extracellular compartment was decreased by co-treatment of ES with a known copper chelator, bathocuproine disulfonate (BCS). […] To determine whether ES is able to bypass a mitochondrial copper transporter, Pic2, ES supplementation in pic2Δ and coa6Δpic2Δ cells was performed.

[3] = system: Coa6 knockdown zebrafish embryos
Procedure: Batches of 50 fertilized embryos injected with either translation blocking or mismatch control morpholinos were treated with or without 100 nM ES at 3 hpf, before making observations at the indicated time points (n % 30 for each time point and treatment).
Zebrafish Experiments. […] Wild type AB strain and Ctr1 heterozygous zebrafish were maintained and crossed using standard methods. Embryos were staged and raised in Egg Water at 28.5° C. For drug treatments, embryos from Ctr1 heterozygous crosses were incubated in 10 nM ES diluted in Egg Water beginning at 3 hours post-fertilization (hpf). For imaging live embryos at 48 hpf, representative embryos of each sample were anesthetized in Tricaine and imaging was performed on an Olympus SZX12 stereomicroscope. […] Morpholino-based experiments were performed.

[4] = system: Ctr1^−/− H9c2 cardiomyocytes; test: Intracellular copper levels in Ctr1 knockout H9c2 cardiomyocytes (ICP-MS); type: cell-based, rat; details: 5 nM ES
Procedure: FIGS. 4A and 4B illustrates the effects of ES supplementation in increasing copper levels (A) and cytochrome c oxidase subunit, COX1, and superoxide dismutase, SOD1 levels (B) in Ctrl1^−/− H9c2 rat cardiomyocytes. ATP5A is a subunit of mitochondrial ATP synthase and was used as a loading control for the Western blotting experiment.
Mammalian Cell Culture. The human control MCH46 and SCO2 patient fibroblasts as well as the rat H9c2 control and Ctr1^−/− cardiomyocytes were cultured in high glucose Dulbecco's modified Eagle's medium (DMEM) supplemented with 10% fetal bovine serum (Sigma) and 1 mM sodium pyruvate (Life Technologies). […] Whole cell protein was extracted in lysis buffer (BP-115, Boston BioProducts) supplemented with protease inhibitor cocktail (Roche Diagnostics) and the protein concentrations were determined by BCA assay (Thermo Scientific). […]
Cellular and Mitochondrial Copper Measurements. Cellular and mitochondrial copper levels were measured using the Perkin Elmer DRC II Inductively Coupled Plasma-Mass Spectrometer (ICP-MS). […] Samples were diluted in ultrapure metal-free water (TraceSELECT, Sigma) and analyzed by ICP-MS. […] Copper concentrations in mammalian cells were also measured by ICP-MS. […]

Structure (SMILES): CN(NC(=O)CC(=O)NN(C)C(=S)c1ccccc1)C(=S)c1ccccc1 [ES, elesclomol]
- toxicity profile [1]: favorable toxicity profile
- steady state levels of COX2 (SCO2 patient fibroblasts): partially rescue
- toxicity in immortalized cell lines compared to primary cultures [2]: much more pronounced toxicity in immortalized cell lines
- concentration at which ES toxicity occurs relative to the dose that rescued COX2 levels ([2]; immortalized fibroblasts, 36 hours): 20 ×
- rescue of respiratory growth (coa6Δpic2Δ cells): did rescue
- pericardial edema ([3]; 100 nM ES): prevented pericardial edema
- rescue of morphological phenotype score ([3]; 100 nM ES at 3 hpf, scored at 24, 48, 72, 96 hpf): rescue with 100 nM ES treatment was observed as early as 48 hpf
- heart rate of Coa6 knockdown embryos ([3]; 100 nM ES, 72 and 96 hpf): significantly increased the heart rate
- intracellular copper levels [4]: restored
